Our source for the IC50 values is patent US8999982B2, “Pharmaceutically active compounds as Axl inhibitors” (Lead Discovery Center GmbH, priority 2010, dated 2015).

The target of test [1] is T1, Axl (Homo sapiens (Human), UniProt P30530). Nature of the test: Axl binding assay. The method, then:
Binding of the tracer to the kinase is detected using an EU-labeled anti-tag antibody. […] Binding of an inhibitor to the kinase competes for binding with the tracer, resulting in a loss of FRET-signal. At first a compound according to formula (I) was diluted in 20 mM Hepes pH 8.0, 1 mM DTT, 10 mM MgCl2 and 0.01% Brij35.

In test [2] the target is T1, Axl. Nature of the test: Cellular Axl phosphorylation assay. The format is cell-based. Conditions: HEK293 cells transfected with Axl cDNA, 1 hour incubation. The method, then: 3. Cellular Axl Phosphorylation Assay:
HEK293 embryonal kidney fibroblasts were transfected in 96 wells with a plasmid containing Axl cDNA. As transfection reagent Superfect (Qiagen) was used. Transfection of the sole vector backbone served as negative control of Axl expression. After overnight incubation the cellular supernatant was replaced with fresh medium. On the following day the Axl-expressing cells were incubated for 1 hour with a compound according to formula (I) at the suitable concentrations. […] The mesoscale technology was used for quantification.

T1 sequence (P30530 26-894): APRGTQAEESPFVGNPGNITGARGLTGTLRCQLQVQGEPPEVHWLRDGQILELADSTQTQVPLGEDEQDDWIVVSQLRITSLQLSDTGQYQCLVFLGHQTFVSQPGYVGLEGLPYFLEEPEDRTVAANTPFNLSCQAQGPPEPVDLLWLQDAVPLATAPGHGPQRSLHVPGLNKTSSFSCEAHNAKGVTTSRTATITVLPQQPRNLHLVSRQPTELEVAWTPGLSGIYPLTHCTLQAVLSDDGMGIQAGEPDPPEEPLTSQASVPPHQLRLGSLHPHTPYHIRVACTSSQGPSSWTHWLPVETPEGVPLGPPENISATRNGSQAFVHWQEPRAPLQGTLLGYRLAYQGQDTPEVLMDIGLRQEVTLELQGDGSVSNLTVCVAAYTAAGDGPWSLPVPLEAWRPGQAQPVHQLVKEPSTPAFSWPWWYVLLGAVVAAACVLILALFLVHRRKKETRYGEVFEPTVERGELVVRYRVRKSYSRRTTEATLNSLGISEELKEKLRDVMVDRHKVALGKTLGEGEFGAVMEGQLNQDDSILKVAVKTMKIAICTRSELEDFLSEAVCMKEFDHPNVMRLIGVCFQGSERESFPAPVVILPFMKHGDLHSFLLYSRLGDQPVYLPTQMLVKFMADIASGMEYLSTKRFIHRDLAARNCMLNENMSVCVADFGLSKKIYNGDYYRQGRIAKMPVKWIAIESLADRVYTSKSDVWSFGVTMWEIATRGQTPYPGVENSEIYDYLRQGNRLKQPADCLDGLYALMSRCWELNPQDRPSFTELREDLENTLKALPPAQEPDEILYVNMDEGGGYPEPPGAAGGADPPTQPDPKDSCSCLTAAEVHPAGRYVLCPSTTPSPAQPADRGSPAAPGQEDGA

With `COc1cc2nccc(Oc3ccc(N)cc3Cl)c2cc1OC` [3-chloro-4-((6,7-dimethoxyquinolin-4-yl)oxy)aniline], the half-inhibitory concentration (IC50) (as a rule, the concentration that inhibits the measured activity by half) at Axl [1] was greater than 10 µM.

Compound `COc1cc(Oc2ccnc3cc(OC)c(OC)cc23)ccc1N` [4-((6,7-dimethoxyquinolin-4-yl)oxy)-2-methoxyaniline] returned a concentration for half-maximal inhibition (IC50) at Axl [1] greater than 10 µM.

For the compound `COc1cc2nccc(Oc3ccc(N)c(C)c3)c2cc1OC` [4-((6,7-dimethoxyquinolin-4-yl)oxy)-2-methylaniline], the IC50 at Axl [1] was greater than 10 µM.

`COc1cc2nccc(Oc3ccc(N)cc3F)c2cc1OC` [4-((6,7-dimethoxyquinolin-4-yl)oxy)-3-fluoroaniline] came in with a 50% inhibitory concentration (IC50) at Axl [1] greater than 10 µM.

Regarding `COc1cc2nccc(Oc3ccc(N)cc3C)c2cc1OC` [4-((6,7-dimethoxyquinolin-4-yl)oxy)-3-methylaniline], the IC50 on Axl [1] was greater than 10 µM.

Compound `COc1cc2nccc(Oc3ccc(N)cc3)c2cc1OC` [4-((6,7-dimethoxyquinolin-4-yl)oxy)aniline] yielded an IC50 at Axl [1] greater than 10 µM.

Take `COc1cc2nccc(Oc3ccc(N)nc3)c2cc1OC` [5-((6,7-dimethoxyquinolin-4-yl)oxy)pyridin-2-amine]: the concentration for half-maximal inhibition (IC50) on Axl [1] was greater than 10 µM.

As to `COc1cc2nccc(Oc3ccc(NC(=O)c4cc(C)n(C)n4)cc3F)c2cc1OC` [Example 1, N-[4-[(6,7-dimethoxy-4-quinolyl)oxy]-3-fluoro-phenyl]-1,5-dimethyl-pyrazole-3-carboxamide], the IC50 at Axl [1] and on Axl [2] was 0.5 to 5 µM in each case.

Turning to `COc1cc2nccc(Oc3ccc(NC(=O)c4csc(-c5ccc(C(F)(F)F)cc5)n4)cc3F)c2cc1OC` [Example 2, N-[4-[(6,7-dimethoxy-4-quinolyl)oxy]-3-fluoro-phenyl]-2-[4-(trifluoromethyl)phenyl]thiazole-4-carboxamide], the IC50 at Axl [1] was 0.5 to 5 µM.

Turning to `COc1cc2nccc(Oc3ccc(NC(=O)c4nn(C)cc4Br)cc3F)c2cc1OC` [Example 3, 4-bromo-N-[4-[(6,7-dimethoxy-4-quinolyl)oxy]-3-fluoro-phenyl]-1-methyl-pyrazole-3-carboxamide], the 50% inhibitory concentration (IC50) on Axl [1] and against Axl [2] was 0.5 to 5 µM each time.

In the case of `COc1cc2nccc(Oc3ccc(NC(=O)c4ccn(C)n4)cc3F)c2cc1OC` [Example 4, N-[4-[(6,7-dimethoxy-4-quinolyl)oxy]-3-fluoro-phenyl]-1-methyl-pyrazole-3-carboxamide], the IC50 on Axl [1] and at Axl [2] was 0.5 to 5 µM in each case.

In the case of `COc1cc2nccc(Oc3ccc(NC(=O)c4cc(C)n(C(C)(C)C)n4)cc3F)c2cc1OC` [Example 5, 1-tert-butyl-N-[4-[(6,7-dimethoxy-4-quinolyl)oxy]-3-fluoro-phenyl]-5-methyl-pyrazole-3-carboxamide], the half-inhibitory concentration (IC50) at Axl [1] and on Axl [2] was less than 0.5 µM in each case.

On Axl [1], `COc1cc2nccc(Oc3ccc(NC(=O)c4nccs4)cc3F)c2cc1OC` [Example 6, N-[4-[(6,7-dimethoxy-4-quinolyl)oxy]-3-fluoro-phenyl]thiazole-2-carboxamide] displayed an IC50 of 0.5 to 5 µM.

Turning to `COc1cc2nccc(Oc3ccc(NC(=O)c4nn(C)c5ccccc45)cc3F)c2cc1OC` [Example 8, N-[4-[(6,7-dimethoxy-4-quinolyl)oxy]-3-fluoro-phenyl]-1-methyl-indazole-3-carboxamide], the half-inhibitory concentration (IC50) on Axl [1] lay within 0.5 to 5 µM.

Compound `COc1cc2nccc(Oc3ccc(NC(=O)c4cc(C)on4)cc3F)c2cc1OC` [Example 9, N-[4-[(6,7-dimethoxy-4-quinolyl)oxy]-3-fluoro-phenyl]-5-methyl-isoxazole-3-carboxamide] had an IC50 on Axl [1] of 0.5 to 5 µM.

For the compound `COc1cc2nccc(Oc3ccc(NC(=O)c4csc(-c5ccccc5)n4)cc3F)c2cc1OC` [Example 10, N-[4-[(6,7-dimethoxy-4-quinolyl)oxy]-3-fluoro-phenyl]-2-phenyl-thiazole-4-carboxamide], the IC50 on Axl [1] and against Axl [2] was 0.5 to 5 µM each time.

Consider `CCCn1ccc(C(=O)Nc2ccc(Oc3ccnc4cc(OC)c(OC)cc34)c(F)c2)n1` [Example 13, N-[4-[(6,7-dimethoxy-4-quinolyl)oxy]-3-fluoro-phenyl]-1-propyl-pyrazole-3-carboxamide], for which the IC50 at Axl [1] was 0.5 to 5 µM; against Axl [2], less than 0.5 µM.

As for `COc1cc2nccc(Oc3ccc(NC(=O)c4ccn(COCC(F)(F)F)n4)cc3F)c2cc1OC` [Example 15, N-[4-[(6,7-dimethoxy-4-quinolyl)oxy]-3-fluoro-phenyl]-1-(2,2,2-trifluoroethoxymethyl)pyrazole-3-carboxamide], the IC50 on Axl [1] was 0.5 to 5 µM; against Axl [2], less than 0.5 µM.

Turning to `CCOc1cn(-c2ccc(F)cc2)nc1C(=O)Nc1ccc(Oc2ccnc3cc(OC)c(OC)cc23)c(F)c1` [Example 16, N-[4-[(6,7-dimethoxy-4-quinolyl)oxy]-3-fluoro-phenyl]-4-ethoxy-1-(4-fluorophenyl)pyrazole-3-carboxamide], the IC50 at Axl [1] and against Axl [2] was less than 0.5 µM throughout.

Regarding `COc1cc2nccc(Oc3ccc(NC(=O)c4nn(-c5ccc(F)cc5)cc4OC)cc3F)c2cc1OC` [Example 17, N-[4-[(6,7-dimethoxy-4-quinolyl)oxy]-3-fluoro-phenyl]-1-(4-fluorophenyl)-4-methoxy-pyrazole-3-carboxamide], the IC50 at Axl [1] and at Axl [2] was less than 0.5 µM throughout.

In the case of `COc1cc2nccc(Oc3ccc(NC(=O)c4nn(-c5ccc(F)cc5)cc4OCC4CC4)cc3F)c2cc1OC` [Example 18, 4-(cyclopropylmethoxy)-N-[4-[(6,7-dimethoxy-4-quinolyl)oxy]-3-fluoro-phenyl]-1-(4-fluorophenyl)pyrazole-3-carboxamide], the concentration for half-maximal inhibition (IC50) at Axl [1] and against Axl [2] was less than 0.5 µM each time.

In the case of `COc1cc2nccc(Oc3ccc(NC(=O)c4nn(-c5ccc(F)cc5)cc4OCCN(C)C)cc3F)c2cc1OC` [Example 19, N-[4-[(6,7-dimethoxy-4-quinolyl)oxy]-3-fluoro-phenyl]-4-(2-dimethylaminoethoxy)-1-(4-fluorophenyl)pyrazole-3-carboxamide], the half-maximal inhibitory concentration (IC50) at Axl [1] and at Axl [2] was less than 0.5 µM each time.

Consider `COc1cc2nccc(Oc3ccc(NC(=O)c4nn(-c5ccc(F)cc5)cc4OCCCN(C)C)cc3F)c2cc1OC` [Example 20, N-[4-[(6,7-dimethoxy-4-quinolyl)oxy]-3-fluoro-phenyl]-4-(3-dimethylaminopropoxy)-1-(4-fluorophenyl)pyrazole-3-carboxamide], for which the IC50 at Axl [1] and at Axl [2] was 0.5 to 5 µM in each case.

For the compound `COc1cc2nccc(Oc3ccc(NC(=O)c4nn(-c5ccc(F)cc5)cc4OC(C)C)cc3F)c2cc1OC` [Example 21, N-[4-[(6,7-dimethoxy-4-quinolyl)oxy]-3-fluoro-phenyl]-1-(4-fluorophenyl)-4-isopropoxy-pyrazole-3-carboxamide], the IC50 at Axl [1] and at Axl [2] was less than 0.5 µM each time.

Regarding `CCOc1cn(-c2ccc(F)cc2Cl)nc1C(=O)Nc1ccc(Oc2ccnc3cc(OC)c(OC)cc23)c(F)c1` [Example 23, 1-(2-chloro-4-fluoro-phenyl)-N-[4-[(6,7-dimethoxy-4-quinolyl)oxy]-3-fluoro-phenyl]-4-ethoxy-pyrazole-3-carboxamide], the IC50 at Axl [1] and on Axl [2] was less than 0.5 µM in each case.

Consider `CCOc1cn(-c2ccc(F)cc2)nc1C(=O)Nc1ccc(Oc2ccnc3cc(OC)c(OC)cc23)cc1` [Example 24, N-[4-[(6,7-dimethoxy-4-quinolyl)oxy]phenyl]-4-ethoxy-1-(4-fluorophenyl)pyrazole-3-carboxamide], for which the concentration for half-maximal inhibition (IC50) on Axl [1] and against Axl [2] was less than 0.5 µM throughout.

Consider `COc1cc2c(Oc3ccc(NC(=O)c4nc(-c5ccccc5OC)cs4)nc3)ccnc2cc1OCC1CCNCC1` [Example 100, N-(5-((6-methoxy-7-(piperidin-4-ylmethoxy)quinolin-4-yl)oxy)pyridin-2-yl)-4-(2-methoxyphenyl)thiazole-2-carboxamide], for which the IC50 at Axl [1] lay within 0.5 to 5 µM.

As to `CCOc1cn(-c2ccn(C)n2)nc1C(=O)Nc1ccc(Oc2ccnc3cc(OC)c(OC)cc23)c(F)c1` [Example 106, N-(4-((6,7-dimethoxyquinolin-4-yl)oxy)-3-fluorophenyl)-4-ethoxy-1′-methyl-1′H-[1,3′-bipyrazole]-3-carboxamide], the half-maximal inhibitory concentration (IC50) on Axl [1] was less than 0.5 µM.

For `COc1cc2nccc(Oc3ccc(NC(=O)c4cnn(-c5ccccc5)c4C(F)(F)F)cc3F)c2cc1OC` [Ref1, N-(4-((6,7-dimethoxyquinolin-4-yl)oxy)-3-fluorophenyl)-1-phenyl-5-(trifluoromethyl)-1H-pyrazole-4-carboxamide, reference compound], the IC50 on Axl [1] is greater than 10 µM.

As for `COc1cc2nccc(Oc3ccc(NC(=O)c4cc(-c5ccccc5)on4)cc3F)c2cc1OC` [Ref2, N-(4-((6,7-dimethoxyquinolin-4-yl)oxy)-3-fluorophenyl)-5-phenylisoxazole-3-carboxamide, reference compound], the half-inhibitory concentration (IC50) at Axl [1] is greater than 10 µM.

Regarding `COc1cc2nccc(Oc3ccc(NC(=O)c4ccco4)cc3)c2cc1OC` [Ref3, N-(4-((6,7-dimethoxyquinolin-4-yl)oxy)phenyl)furan-2-carboxamide, reference compound], the IC50 at Axl [1] is greater than 10 µM; at Axl [1] (listed as compound 64) it was no less than 10 µM.

Consider `COc1cc2nccc(Oc3ccc(NC(=O)c4ccncc4)cc3)c2cc1OC` [Ref5, N-(4-((6,7-dimethoxyquinolin-4-yl)oxy)phenyl)isonicotinamide, reference compound], for which the 50% inhibitory concentration (IC50) on Axl [1] is greater than 10 µM; on Axl [1] (listed as compound 71), no less than 10 µM.

The compound `COc1cc2c(Oc3ccc(N)cc3F)ccnc2cc1OCC1CCN(C(=O)OC(C)(C)C)CC1` [tert-butyl 4-(((4-(4-amino-2-fluorophenoxy)-6-methoxyquinolin-7-yl)oxy)methyl)piperidine-1-carboxylate] yielded an IC50 on Axl [1] greater than 10 µM.
